Data taken from patent publication US20140378474A1, “5-membered heteroarylcarboxamide derivatives as plasma kallikrein inhibitors” (NOVARTIS AG, priority 2012, published 2014).

These molecules were tested against T1, Human plasma kallikrein (Homo sapiens, UniProt P03952) (assay: In vitro inhibition of plasma kallikrein (fluorogenic substrate DPro-Phe-Arg-(Rh110)-γGlu-OH)). Conditions: human plasma kallikrein nominally 12 pM, substrate 0.5 μM, 1 hour pre-incubation at room temperature, read after 1 hour (t=60 min).
T1 construct: purchased Kordia (Leiden, Netherlands) batch HPKA 1303
Type: biochemical
Description: In Vitro Inhibition of Plasma Kallikrein
The fluorogenic substrate DPro-Phe-Arg-(Rh110)-γGlu-OH (where DPro is the amino acid d-proline, Rh110 is the fluorophore rhodamine 110 and γGlu is a […] linked to Rh110 via the gamma-carbonyl function; from Biosyntan, Berlin, Germany), being based on the chromogenic substrate described in Gallimore et al (Thromb Res 25, 293-298, 1982), was dissolved in DMSO at 5 mM and stored at −80° C. All other chemicals were of analytical grade.
Human plasma kallikrein was purchased from Kordia (Leiden, Netherlands, batch HPKA 1303) in lyophilized form.
The protein solution was reconstituted from the lyophilisate by addition of deinonized water. The resulting stock solution comprised the protein at a concentration of 0.17 mg/ml in 4 mM sodium acetate/HCl and 150 mM NaCl at pH 5.3. The stock solution was stored in aliquots at −80° C. Enzymatic reactions were conducted in ‘assay buffer’, comprising 50 mM Hepes/NaOH at pH 7.8, 150 mM NaCl, 1 mM EDTA and 0.05% (w/v) CHAPS.
Both, enzyme and substrate were diluted in assay buffer.
All protein and peptide containing solutions were handled in siliconized tubes (Life Systems Design, Merenschwand, Switzerland). The compound solutions as well as the enzyme and the substrate solutions were transferred to 384-well plates (black Cliniplate; cat. no. 95040020 Labsystems Oy, Finland) by means of a CyBi-Well 96-channel pipettor (CyBio AG, Jena, Germany). Plate measurements were conducted by the means of a Safire2 reader (TECAN, Maennedorf, Switzerland). The Safire2 is a monochomator-based instrument and wavelengths of 485 nm and 535 nm were taken for fluorescence excitation and emission acquisition, respectively. The bandwidths were set to 10 nm in both the excitation and the emission path. The fluorescence in each well was excited by three flashes per measurement.
For the determination of IC50 values, the assays were performed at room temperature in 384-well plates with a total assay volume of 25.25 μl per well.
The test compound was dissolved in 90% (v/v) DMSO/water. For the assays, […] of the 90% (v/v) DMSO/water solution or compound solution were added per well, followed by the addition of 12.5 μl protease solution (protease in assay buffer). The final assay concentration of the human plasma kallikrein was nominally 12 pM, the 11 compound concentrations in the dilution series were in the range form 1 nM to 100 μM. After 1 hour of pre-incubation at room temperature, the reactions were started by the addition of 12.5 μl substrate solution (in assay buffer, final assay concentration was 0.5 μM). After the addition of the substrate solution, the final DMSO concentration in the assay was 0.9% (v/v). The effect of the compound on the enzymatic activity was obtained from the linear part of the progress curves and determined after 1 hour (t=60 min). The IC50 value was calculated from the plot of percentage of inhibition vs. inhibitor concentration by a logistics fit according to the following equation:
where y is the %-inhibition at the inhibitor concentration, x. A1 is the lowest inhibition value, i.e. 0%, and A2 the maximum inhibition value, i.e. 100%. The exponent, p, is the Hill coefficient. The curve fitting was conducted with the non-linear regression routine of the analysis software Origin 7.5SR6 (Origin Lab Corporation).

T1 sequence (P03952 391-638 limits assumed): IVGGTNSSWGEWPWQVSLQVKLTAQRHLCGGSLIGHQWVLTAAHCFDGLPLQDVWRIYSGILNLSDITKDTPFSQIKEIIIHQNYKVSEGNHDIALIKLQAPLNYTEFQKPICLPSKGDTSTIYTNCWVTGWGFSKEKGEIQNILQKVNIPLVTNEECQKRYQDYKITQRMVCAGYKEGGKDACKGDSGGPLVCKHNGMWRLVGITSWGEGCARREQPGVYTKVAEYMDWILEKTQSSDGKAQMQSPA
T1 sequence (P03952 20-390 partner limits assumed): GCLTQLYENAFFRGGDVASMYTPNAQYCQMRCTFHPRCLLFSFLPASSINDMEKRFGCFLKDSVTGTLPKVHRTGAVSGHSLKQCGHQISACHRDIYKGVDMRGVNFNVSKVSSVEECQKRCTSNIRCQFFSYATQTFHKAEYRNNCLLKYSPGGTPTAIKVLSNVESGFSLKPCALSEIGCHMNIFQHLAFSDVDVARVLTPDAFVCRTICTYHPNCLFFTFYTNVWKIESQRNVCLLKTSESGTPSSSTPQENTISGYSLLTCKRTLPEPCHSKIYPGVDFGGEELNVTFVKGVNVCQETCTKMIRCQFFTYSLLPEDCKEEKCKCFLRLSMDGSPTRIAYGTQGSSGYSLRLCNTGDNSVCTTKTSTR

Q: With `Cn1nnc2cc(Cn3cc(C(=O)NCc4cccc(Cl)c4)cn3)ccc21` [N-(3-chlorobenzyl)-1-((1-methyl-1H-benzo[d][1,2,3]triazol-5-yl)methyl)-1H-pyrazole-4-carboxamide] as the molecule, how does the IC50 read?
A: Its IC50 is over 30 µM.

Q: How did the IC50 turn out when `COc1cccc(Cn2cc(C(=O)NCc3ccc(Cl)cc3)cn2)c1` [N-(4-chlorobenzyl)-1-(3-methoxybenzyl)-1H-pyrazole-4-carboxamide] was run?
A: Its IC50 is over 30 µM.

Q: For `COc1ccc(Cn2cc(C(=O)NCc3ccc(Cl)cc3)cn2)cc1` [N-(4-chlorobenzyl)-1-(4-methoxybenzyl)-1H-pyrazole-4-carboxamide], which IC50 is on record?
A: The IC50 was over 30 µM.

Q: For `Cc1ccc(CNC(=O)c2cn(Cc3ccc4nc(C)ccc4c3)nn2)c(Cl)n1` [N-((2-chloro-6-methylpyridin-3-yl)methyl)-1-((2-methylquinolin-6-yl)methyl)-1H-1,2,3-triazole-4-carboxamide], which IC50 is on record?
A: Its IC50 is over 30 µM.

Q: With `COc1cc(C)c(CNC(=O)c2cn(Cc3ccc4nc(C)ccc4c3)nn2)c(C)n1` [N-((6-methoxy-2,4-dimethylpyridin-3-yl)methyl)-1-((2-methylquinolin-6-yl)methyl)-1H-1,2,3-triazole-4-carboxamide] as the molecule, how does the IC50 read?
A: The IC50 was over 30 µM.
